pKi: −log10 of the molar value. Read-outs that look alike come from different tables or passages of the source.
Columns and labels:
[1] = biological target: T1, human 5-HT1A-serotoninergic receptor (Homo sapiens, UniProt P08908); test: Radioligand binding ([3H]8-OH-DPAT) on membranes of HeLa cells expressing cloned 5-HT1A receptor; settings: read-out: Affinity (Ki) 5-HT1A
T1 construct: expressed in transfected cells; host or cells: HeLa cells (membranes)
T1 sequence (P08908 1-422): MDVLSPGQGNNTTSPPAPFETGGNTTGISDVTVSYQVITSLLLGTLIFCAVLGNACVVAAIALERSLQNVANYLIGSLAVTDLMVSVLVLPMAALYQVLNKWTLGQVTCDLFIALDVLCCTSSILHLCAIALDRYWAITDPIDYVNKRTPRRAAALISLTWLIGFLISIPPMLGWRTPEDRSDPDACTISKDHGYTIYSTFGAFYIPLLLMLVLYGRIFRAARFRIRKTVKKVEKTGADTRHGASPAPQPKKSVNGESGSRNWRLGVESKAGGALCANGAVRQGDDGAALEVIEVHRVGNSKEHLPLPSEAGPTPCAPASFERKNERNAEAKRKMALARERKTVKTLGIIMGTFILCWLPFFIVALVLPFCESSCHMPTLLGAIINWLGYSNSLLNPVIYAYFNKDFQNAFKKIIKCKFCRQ
Method: (§1) The determination of affinity for cloned subtypes of human α1 adrenergic receptors was performed in membranes from CHO cells (chinese hamster ovary cells) transfected by electroporation with DNA expressing the genes encoding each α1-adrenoceptor subtype, namely α1a, α1b and α1d.. Cloning and stable expression of the human α1-adrenoceptor gene were performed as previously described (Testa et al., Pharmacol. Comm. 6, 79-86 (1995)). CHO cell membranes were incubated in […] Tris pH 7.4 with 0.2 nM [^3H]prazosin, in a final volume of 1.02 ml for 30 minutes at 25°C, in the absence or presence of competing drugs (1 pM-10 µM). Non-specific binding was determined in the presence of 10 µM phentolamine. Incubation was stopped by addition of ice-cold Tris buffer and rapid filtration through 0.2% polyethyleneimine pretreated Schleicher & Schuell GF52 filters. Genomic clone G-21 coding for the human 5-HT1A-serotoninergic receptor was stably transfected in a human cell line (HeLa) (Fargin et al., J. Biol. Chem. 284, 14848-14852 (1989)). The HeLa cells were grown as monolayers in Dulbecco's modified Eagle's medium (DMEM), supplemented with 10% foetal calf serum and gentamicin (100 µg/ml), 5% CO2, at 37°C. The cells were detached from the growth flask at 95% confluence by a cell scraper and were lysed in ice-cold 5 mM Tris and 5-mM EDTA buffer (pH 7.4). The homogenates were centrifuged at 40000 x g x 20 minutes and the membranes were re-suspended in a small volume of ice-cold 5 mM Tris and 5-mM EDTA buffer (pH 7.4) and immediately frozen and stored at -70°C until use. On the experiment day, the cell membranes were re-suspended in a buffer containing 50 mM Tris (pH 7.4), 2.5 mM MgCl2, 10 µM pargyline (Fargin et al., Nature 335, 358-360 (1988)). […] The incubation was stopped by addition of ice-cold Tris buffer and rapid filtration through 0.2%-polyethyleneimine-pretreated Schleicher & Schuell filters. The inhibition of specific binding of the radioligands by the drugs was analysed to estimate the IC50 value by using the non-linear curve-fitting programme Allfit (De Lean et al., Am. J. Physiol. 235, E97-E102 (1978)). The IC50 value was converted to an affinity constant (Ki) by the equation of Cheng & Prusoff (Biochem. Pharmacol. 22, 3099-3108 (1973)). Data were expressed as mean of Ki.

[2] = biological target: T2, human recombinant α1a adrenoceptor (Homo sapiens, UniProt P35348); test: Radioligand binding ([3H]prazosin) on membranes of CHO cells expressing cloned α1a adrenoceptor; settings: read-out: Affinity (Ki) α1a
T2 construct: expressed in transfected cells; host or cells: CHO cells (membranes)
T2 sequence (P35348 1-466): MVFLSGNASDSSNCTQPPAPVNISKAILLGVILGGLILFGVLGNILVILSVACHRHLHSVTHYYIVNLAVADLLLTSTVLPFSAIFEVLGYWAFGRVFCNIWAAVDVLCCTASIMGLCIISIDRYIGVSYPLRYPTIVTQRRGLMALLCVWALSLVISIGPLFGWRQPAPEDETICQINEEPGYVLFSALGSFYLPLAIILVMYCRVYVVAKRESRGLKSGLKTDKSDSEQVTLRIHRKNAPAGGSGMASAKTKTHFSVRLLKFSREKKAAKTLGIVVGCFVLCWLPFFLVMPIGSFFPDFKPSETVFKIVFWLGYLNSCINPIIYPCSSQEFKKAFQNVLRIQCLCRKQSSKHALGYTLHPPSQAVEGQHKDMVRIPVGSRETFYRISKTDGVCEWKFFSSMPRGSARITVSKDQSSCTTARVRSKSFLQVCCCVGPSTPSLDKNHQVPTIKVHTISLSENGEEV
Method: as §1, with “Genomic clone G-21 coding for the human 5-HT1A-serotoninergic receptor was stably transfected in a human cell line (HeLa) (Fargin et al., J. Biol. Chem. 284, 14848-14852 (1989)).” left out

[3] = human cloned receptor, HeLa cell membranes, 1.2 nM [3H]8-OH-DPAT
[4] = human cloned receptor, CHO cell membranes, 0.2 nM [3H]prazosin

Compound | pKi [1, 3] | pKi [2, 4] | pKi [1] | pKi [2]
O=C1CCCC(=O)N1CCN1CCN(c2cc(Cl)ccc2Cl)CC1 [Example 2, 1-{2-[4-(2,5-Dichlorophenyl)-1-piperazinyl]-ethyl}-piperidinyl-2,6-dione] | 6.59 | 7.11 | – | –
O=C1CC2(CCCC2)CC(=O)N1CCN1CCN(c2cc(Br)ccc2Br)CC1 [Example 7, 8-{2-[4-(2,5-Dibromophenyl)-1-piperazinyl]-ethyl}-8-azaspiro[4.5]decane-7,9-dione] | 7.21 | 6.94 | – | –
O=C1CC2(CCCC2)CC(=O)N1CCN1CCN(c2cc(I)ccc2Cl)CC1 [Example 10, 8-{2-[4-(2-Chloro-5-iodophenyl)-1-piperazinyl]-ethyl}-8-azaspiro[4.5]decane-7,9-dione] | 6.09 | 6.32 | – | –
CCC1(C)CC(=O)N(CCN2CCN(c3cc(Cl)ccc3Cl)CC2)C(=O)C1 [Example 13, 1-{2-[4-(2,5-Dichlorophenyl)-1-piperazinyl]-ethyl}-4-ethyl-4-methylpiperidinyl-2,6-dione] | 6.98 | 7.22 | – | –
O=C1CC2(CCCC2)C(=O)N1CCN1CCN(c2cc(Cl)ccc2Cl)CC1 [Example 14, 2-{2-[4-(2,5-Dichlorophenyl)-1-piperazinyl]-ethyl}-2-azaspiro[4.4]nonane-1,3-dione] | – | 7.17 | < 6.00 | –
O=C1CC2(CCC2)CC(=O)N1CCN1CCN(c2cc(Cl)ccc2Cl)CC1 [Example 15, 7-{2-[4-(2,5-Dichlorophenyl)-1-piperazinyl]-ethyl}-7-azaspiro[3.5]nonane-6,8-dione] | – | 6.92 | < 6.00 | –
CC(CN1CCN(c2cc(Cl)ccc2Cl)CC1)N1C(=O)CC2(CCCC2)CC1=O (centres unmarked) [Example 16, 8-{2-[4-(2,5-Dichlorophenyl)-1-piperazinyl]-1-methylethyl}-8-azaspiro[4.5]decane-7,9-dione] | 6.68 | 6.73 | – | –
O=C1CC2(CCCC2)CC(=O)N1CCN1CCC(c2cc(Cl)ccc2Cl)CC1 [Example 17, 8-{2-[4-(2,5-Dichlorophenyl)-1-piperidinyl]-ethyl}-8-azaspiro[4.5]decane-7,9-dione] | 6.61 | 6.93 | – | –
CN(CCN1C(=O)CC2(CCCC2)CC1=O)CCN(C)c1cc(Cl)ccc1Cl [Example 18, N-(2,5-Dichlorophenyl)-N'-{2-(7,9-dioxo-8-azaspiro[4.5]decane-8-yl)-ethyl}-N,N'-dimethyl-1,2-diaminoethane] | 6.36 | 6.10 | – | –
O=C1CC2(C=CN1CCN1CCN(c3cc(Cl)ccc3Cl)CC1)CCCC2 [Example 20, 8-{2-[4-(2,5-Dichlorophenyl)-1-piperazinyl]-ethyl}-8-azaspiro[4.5]dec-9,10-en-7-one] | 7.04 | – | – | 7.57
O=C1CC2(CCCC2)CCN1CCN1CCN(c2cc(F)c(F)cc2F)CC1 [Example 24, 8-{2-[4-(2,4,5-Trifluorophenyl)-1-piperazinyl]-ethyl}-8-azaspiro[4.5]decane-7-one] | – | 6.15 | 6.67 | –

Now from value to compound, other results behind:

pKi [1, 3] | pKi [2, 4] | pKi [1] | Compound | pKi [2]
7.44 | – | – | O=C1CC2(CCCC2)CC(=O)N1CCN1CCN(c2cc(Cl)ccc2Cl)CC1 [Example 1, 8-{2-[4-(2,5-Dichlorophenyl)-1-piperazinyl]-ethyl}-8-azaspiro[4.5]decane-7,9-dione] | –
7.28 | < 6.00 | – | Cc1ccc(F)c(N2CCN(CCN3C(=O)CC4(CCCC4)CC3=O)CC2)c1 [Example 4, 8-{2-[4-(2-Fluoro-5-methylphenyl)-1-piperazinyl]-ethyl}-8-azaspiro[4.5]decane-7,9-dione] | –
6.56 | 6.92 | – | Cc1ccc(C)c(N2CCN(CCN3C(=O)CC4(CCCC4)CC3=O)CC2)c1 [Example 5, 8-{2-[4-(2,5-Dimethylphenyl)-1-piperazinyl]-ethyl}-8-azaspiro[4.5]decane-7,9-dione] | –
6.80 | < 6.00 | – | O=C1CC2(CCCC2)CC(=O)N1CCN1CCN(c2cc(C(F)(F)F)ccc2F)CC1 [Example 6, 8-{2-[4-(2-Fluoro-5-trifluoromethylphenyl)-1-piperazinyl]-ethyl}-8-azaspiro[4.5]decane-7,9-dione] | –
7.53 | 6.30 | – | N#Cc1ccc(Cl)cc1N1CCN(CCN2C(=O)CC3(CCCC3)CC2=O)CC1 [Example 8, 8-{2-[4-(5-Chloro-2-cyanophenyl)-1-piperazinyl]-ethyl}-8-azaspiro[4.5]decane-7,9-dione] | –
7.92 | 6.97 | – | O=C1CC2(CCCC2)CC(=O)N1CCN1CCN(c2cc(F)ccc2Cl)CC1 [Example 9, 8-{2-[4-(2-Chloro-5-fluorophenyl)-1-piperazinyl]-ethyl}-8-azaspiro[4.5]decane-7,9-dione] | –
6.89 | 6.48 | – | O=C1CC2(CCCCC2)CC(=O)N1CCN1CCN(c2cc(Cl)ccc2Cl)CC1 [Example 11, 3-{2-[4-(2,5-Dichlorophenyl)-1-piperazinyl]-ethyl}-3-azaspiro[5.5]undecane-2,4-dione] | –
